Measurements as given in patent US20240108602A1, “TREATMENT OF MENTAL DISORDERS” (GH Research Ireland Limited, priority 2022, published 2024).

Test system: patients with postpartum depression (PPD)
Assay: Clinical trial of inhaled 5-MeO-DMT (IDR) in patients with postpartum depression
Procedure: The single-arm, open-label clinical trial will involve 15 adult female patients with clinically diagnosed postpartum depression (PPD).
The second dose (12 mg) will only be administered if: • a. A peak experience (total score of ≥75) has not been achieved following the 6 mg dose, and • b. The 6 mg dose was safe and well-tolerated according to the investigator, • c. Any psychoactive effects (PsE) of the prior dose have subsided, and • d. Pre-dose vital parameters and forced expiratory volume in one second (FEV1) are in normal range, or if outside of the normal range, are not clinically significant according to the investigator. • 3. Similarly, a third dose (18 mg) will only be administered if: • a. A peak experience (total score of ≥75) has not been achieved following the 12 mg dose, and • b. The 12 mg dose was safe and well-tolerated according to the investigator, and • c. Any PsE of the prior dose have subsided, and • d. Pre-dose vital parameters and forced expiratory volume in one second (FEV1) are in normal range, or if outside of the normal range, are not clinically significant according to the investigator.
The patients will be assessed for a peak psychedelic experience (based on a patient-scored visual analogue scale, the PE scale), sedation, and other endpoints after dosing.
Follow-up visits are planned for Day 1, and Day 7 after the dosing day.
The following criteria must be met by all patients considered for clinical trial participation: • 1. Is female and in the age range between 18 and 45 years (inclusive) at screening. • 2. Has a body mass index (BMI) in the range of 18.5 and 35 kg/m^2 (inclusive) at screening. • 3. Meets the trial criteria for PPD as assessed by a trial psychiatrist or registered psychologist: • a. Diagnosis of Major Depressive Disorder without psychotic features, confirmed by the Mini-International Neuropsychiatric Interview (MINI), with peri-partum onset that began no earlier than gestation and no later than the first 4 weeks postpartum. • b. Has a Montgomery-Åsberg Depression Rating Scale (MADRS) total score of equal to or greater than 28 at screening and pre-dose on Day 0. • 6. […] Patients must have a negative pregnancy test at screening and on the pre-test day (Day−1). • 5. Is willing to delay start of other antidepressant or anxiety medication until after the end of the trial at Day 7 and agrees to keep any psychotherapy unchanged during the trial.

## COc1ccc2[nH]cc(CCN(C)C)c2c1 [5-MeO-DMT]
PPD patient 1
  ECG, safety laboratory analyses, CADSS: unremarkable
  MADRS response (at least 50% improvement) and MADRS remission (total score 10 or less): fulfilled standard criteria
  reported adverse events (mild, resolved spontaneously): cramping left abdominal pain and headache
PPD patient 1, 2 hr
  MADRS Apparent sadness improvement: 5
  MADRS Apparent sadness score: 0
  MADRS Concentration Difficulties improvement: 0
  MADRS Concentration Difficulties score: 0
  MADRS Inability to Feel improvement: 3
  MADRS Inability to Feel score: 0
  MADRS Inner Tension improvement: 5
  MADRS Inner Tension score: 0
  MADRS Lassitude improvement: 3
  MADRS Lassitude score: 0
  MADRS Pessimistic Thoughts improvement: 4
  MADRS Pessimistic Thoughts score: 0
  MADRS Reduced Sleep improvement: 0
  MADRS Reduced Sleep score: 5
  MADRS Reduced appetite improvement: 0
  MADRS Reduced appetite score: 0
  MADRS Reported sadness improvement: 4
  MADRS Reported sadness score: 0
  MADRS Suicidal Thoughts improvement: 0
  MADRS Suicidal Thoughts score: 0
  Total MADRS improvement: 24
  Total MADRS score: 5
PPD patient 1, Day 1
  BPRS Anxiety improvement: 6
  BPRS Anxiety score: 1
  BPRS Blunted affect improvement: 0
  BPRS Blunted affect score: 1
  BPRS Conceptual disorganization improvement: 0
  BPRS Conceptual disorganization score: 1
  BPRS Depressive Mood improvement: 5
  BPRS Depressive Mood score: 1
  BPRS Disorientation improvement: 0
  BPRS Disorientation score: 1
  BPRS Emotional withdrawal improvement: 4
  BPRS Emotional withdrawal score: 1
  BPRS Excitement improvement: 1
  BPRS Excitement score: 1
  BPRS Grandiosity improvement: 0
  BPRS Grandiosity score: 1
  BPRS Guilt feelings improvement: 5
  BPRS Guilt feelings score: 1
  BPRS Hallucinatory behaviour improvement: 0
  BPRS Hallucinatory behaviour score: 1
  BPRS Hostility improvement: 0
  BPRS Hostility score: 1
  BPRS Mannerisms and Posturing improvement: 0
  BPRS Mannerisms and Posturing score: 1
  BPRS Motor retardation improvement: 0
  BPRS Motor retardation score: 1
  BPRS Somatic Concern improvement: 5
  BPRS Somatic Concern score: 1
  BPRS Suspiciousness improvement: 0
  BPRS Suspiciousness score: 1
  BPRS Tension improvement: 5
  BPRS Tension score: 1
  BPRS Uncooperativeness improvement: 0
  BPRS Uncooperativeness score: 1
  BPRS Unusual Thought Content improvement: 0
  BPRS Unusual Thought Content score: 1
  MADRS Apparent sadness improvement: 5
  MADRS Apparent sadness score: 0
  MADRS Concentration Difficulties improvement: 0
  MADRS Concentration Difficulties score: 0
  MADRS Inability to Feel improvement: 3
  MADRS Inability to Feel score: 0
  MADRS Inner Tension improvement: 5
  MADRS Inner Tension score: 0
  MADRS Lassitude improvement: 3
  MADRS Lassitude score: 0
  MADRS Pessimistic Thoughts improvement: 4
  MADRS Pessimistic Thoughts score: 0
  MADRS Reduced Sleep improvement: 5
  MADRS Reduced Sleep score: 0
  MADRS Reduced appetite improvement: 0
  MADRS Reduced appetite score: 0
  MADRS Reported sadness improvement: 4
  MADRS Reported sadness score: 0
  MADRS Suicidal Thoughts improvement: 0
  MADRS Suicidal Thoughts score: 0
  Total MADRS improvement: 29
  Total MADRS score: 0
PPD patient 1, Day 7
  BIMF TOTAL Δ vs Day 0: 13
  BIMF domain Adjustment % Improvement: 20.00%
  BIMF domain Adjustment score: 6
  BIMF domain Adjustment Δ vs Day 0: 1
  BIMF domain Infant Care % Improvement: 0.00%
  BIMF domain Infant Care score: 12
  BIMF domain Infant Care Δ vs Day 0: 0
  BIMF domain Management % Improvement: 18%
  BIMF domain Management score: 33
  BIMF domain Management Δ vs Day 0: 5
  BIMF domain Mother-Child Interaction score: 17
  BIMF domain Mother-Child Interaction Δ vs Day 0: 2
  BIMF domain Psychological Well-being score: 53
  BIMF domain Psychological Well-being Δ vs Day 0: 9
  BIMF domain Self-Care % Improvement: 44%
  BIMF domain Self-Care score: 13
  BIMF domain Self-Care Δ vs Day 0: 4
  BIMF domain Social Support score: 18
  BIMF domain Social Support Δ vs Day 0: 1
  BIMF item 1 (I am a good mother) score: 6
  BIMF item 1 Δ vs Day 0: 0
  BIMF item 2 (I feel rested) score: 2
  BIMF item 2 Δ vs Day 0: 2
  BIMF item 3 (comfortable with the way I've chosen to feed my baby) score: 6
  BIMF item 3 Δ vs Day 0: 0
  BIMF item 4 (My baby and I understand each other) score: 5
  BIMF item 4 Δ vs Day 0: 0
  BIMF item 5 (able to relax and enjoy time with my baby) score: 6
  BIMF item 5 Δ vs Day 0: 1
  BIMF item 6 (people I can trust to care for my baby when I need a break) score: 6
  BIMF item 6 Δ vs Day 0: 0
  BIMF item 7 Δ vs Day 0: 0
  BIMF item 8 (getting enough adult interaction) score: 6
  BIMF item 8 Δ vs Day 0: 0
  BIMF item 9 (getting enough encouragement from other people) score: 6
  BIMF item 9 Δ vs Day 0: 1
  BIMF item 10 (I trust my own feelings (instincts)) score: 6
  BIMF item 10 Δ vs Day 0: 1
  BIMF item 11 (a little time each week to do something for myself) score: 6
  BIMF item 11 Δ vs Day 0: 1
  BIMF item 12 (taking good care of my baby's physical needs) score: 6
  BIMF item 12 Δ vs Day 0: 0
  BIMF item 13 (taking good care of my physical needs) score: 5
  BIMF item 13 Δ vs Day 0: 1
  BIMF item 14 (good decisions about my baby's health and well being) score: 6
  BIMF item 14 Δ vs Day 0: 0
  BIMF item 15 (My baby and I are getting into a routine) score: 6
  BIMF item 15 Δ vs Day 0: 1
  BIMF item 16 (I worry about how other people judge me) score: 5
  BIMF item 16 Δ vs Day 0: 2
  BIMF item 17 (able to take care of my baby and my other responsibilities) score: 5
  BIMF item 17 Δ vs Day 0: 0
  BIMF item 18 (Anxiety or worry often interferes with my mothering ability) score: 5
  BIMF item 18 Δ vs Day 0: 3
  BIMF item 19 (getting better at taking care of my baby) score: 1
  BIMF item 19 Δ vs Day 0: 1
  BIMF item 20 (satisfied with the job I am doing as a new mother) score: 5
  BIMF item 20 Δ vs Day 0: −1
  BPRS Anxiety improvement: 6
  BPRS Anxiety score: 1
  BPRS Blunted affect improvement: 0
  BPRS Blunted affect score: 1
  BPRS Conceptual disorganization improvement: 0
  BPRS Conceptual disorganization score: 1
  BPRS Depressive Mood improvement: 5
  BPRS Depressive Mood score: 1
  BPRS Disorientation improvement: 0
  BPRS Disorientation score: 1
  BPRS Emotional withdrawal improvement: 4
  BPRS Emotional withdrawal score: 1
  BPRS Excitement improvement: 1
  BPRS Excitement score: 1
  BPRS Grandiosity improvement: 0
  BPRS Grandiosity score: 1
  BPRS Guilt feelings improvement: 5
  BPRS Guilt feelings score: 1
  BPRS Hallucinatory behaviour improvement: 0
  BPRS Hallucinatory behaviour score: 1
  BPRS Hostility improvement: 0
  BPRS Hostility score: 1
  BPRS Mannerisms and Posturing improvement: 0
  BPRS Mannerisms and Posturing score: 1
  BPRS Motor retardation improvement: 0
  BPRS Motor retardation score: 1
  BPRS Somatic Concern improvement: 5
  BPRS Somatic Concern score: 1
  BPRS Suspiciousness improvement: 0
  BPRS Suspiciousness score: 1
  BPRS Tension improvement: 5
  BPRS Tension score: 1
  BPRS Uncooperativeness improvement: 0
  BPRS Uncooperativeness score: 1
  BPRS Unusual Thought Content improvement: 0
  BPRS Unusual Thought Content score: 1
  MADRS Apparent sadness improvement: 5
  MADRS Apparent sadness score: 0
  MADRS Concentration Difficulties improvement: 0
  MADRS Concentration Difficulties score: 0
  MADRS Inability to Feel improvement: 3
  MADRS Inability to Feel score: 0
  MADRS Inner Tension improvement: 4
  MADRS Inner Tension score: 1
  MADRS Lassitude improvement: 3
  MADRS Lassitude score: 0
  MADRS Pessimistic Thoughts improvement: 4
  MADRS Pessimistic Thoughts score: 0
  MADRS Reduced Sleep improvement: 5
  MADRS Reduced Sleep score: 0
  MADRS Reduced appetite improvement: 0
  MADRS Reduced appetite score: 0
  MADRS Reported sadness improvement: 4
  MADRS Reported sadness score: 0
  MADRS Suicidal Thoughts improvement: 0
  MADRS Suicidal Thoughts score: 0
  Total MADRS improvement: 28
  Total MADRS score: 1
PPD patient 1, Day 7, from 92 to 105
  BIMF total score improvement: 14%
PPD patient 1, Discharge
  BPRS Anxiety improvement: 6
  BPRS Anxiety score: 1
  BPRS Blunted affect improvement: 0
  BPRS Blunted affect score: 1
  BPRS Conceptual disorganization improvement: 0
  BPRS Conceptual disorganization score: 1
  BPRS Depressive Mood improvement: 5
  BPRS Depressive Mood score: 1
  BPRS Disorientation improvement: 0
  BPRS Disorientation score: 1
  BPRS Emotional withdrawal improvement: 4
  BPRS Emotional withdrawal score: 1
  BPRS Excitement improvement: 1
  BPRS Excitement score: 1
  BPRS Grandiosity improvement: 0
  BPRS Grandiosity score: 1
  BPRS Guilt feelings improvement: 5
  BPRS Guilt feelings score: 1
  BPRS Hallucinatory behaviour improvement: 0
  BPRS Hallucinatory behaviour score: 1
  BPRS Hostility improvement: 0
  BPRS Hostility score: 1
  BPRS Mannerisms and Posturing improvement: 0
  BPRS Mannerisms and Posturing score: 1
  BPRS Motor retardation improvement: 0
  BPRS Motor retardation score: 1
  BPRS Somatic Concern improvement: 5
  BPRS Somatic Concern score: 1
  BPRS Suspiciousness improvement: 0
  BPRS Suspiciousness score: 1
  BPRS Tension improvement: 5
  BPRS Tension score: 1
  BPRS Uncooperativeness improvement: 0
  BPRS Uncooperativeness score: 1
  BPRS Unusual Thought Content improvement: 0
  BPRS Unusual Thought Content score: 1
PPD patient 1, IDR 6 mg then 12 mg
  time to clinical remission after administration: ≤ 2 h
PPD patient 1, nominal dose 6 mg
  PES score (intensity of psychedelic experience): 17.3
PPD patient 1, shortly after administration
  changes in vital parameters: temporary, clinically non-relevant increase in heart rate and blood pressure
PPD patient 1, subsequent dose 12 mg
  PES score (intensity of psychedelic experience): 85.7
PPD patient 2
  ECG, safety laboratory analyses, CADSS: unremarkable
  MADRS response (at least 50% improvement) and MADRS remission (total score 10 or less): fulfilled standard criteria
  reported adverse events (mild, resolved spontaneously): vomiting on Day 0 and headache on Day 5
PPD patient 2, nominal dose 6 mg
  PES score (intensity of psychedelic experience): 1
PPD patient 2, shortly after administration
  changes in vital parameters: temporary, clinically non-relevant increase in heart rate
PPD patient 2, subsequent dose 12 mg
  PES score (intensity of psychedelic experience): 94.7
